The values below are quoted from earlier work in US12606590B2, “MRNA 5′-end cap analogs, RNA molecule incorporating the same, uses thereof and method of synthesizing RNA molecule or peptide” (Uniwersytet Warszawski, priority 2020, dated 2026).

The conditions of this data set: in vitro and in vivo; single atom substitution in β position of cap oligophosphate bridge.

Turning to `CO[C@@H]1[C@H](O)[C@@H](COP(=O)(O)OP(=O)([S-])OP(=O)(O)OC[C@H]2O[C@@H](n3cnc4c(=O)[nH]c(N)nc43)[C@H](O)[C@@H]2O)O[C@H]1n1c[n+](C)c2c(O)nc(N)nc21` (stereo partly drawn) [β-S-ARCA], the mRNA translation efficiency entry was “significant increase in mRNA translation efficiency”.
